The first data set deals with larvae of green rice leafhopper (Nephotettix cincticeps Uhler). Briefly: Test Example 5: activity against larvae of green rice leafhopper. To be noted: 168 h, 400 ppm, second-instar larvae, 25° C., seven days after treatment, read-out: Mortality. It counts as in vivo. How it is done:
Activity against larvae of green rice leafhopper (Nephotettix cincticeps Uhler).
Testing method: Five rice seedlings of the 1.5 leaf age were dipped in a test composition of 400 ppm concentration for 30 seconds. After air-drying, the seedlings were placed in a glass tube containing 1 ml of water and infested with five second-instar larvae of green rice leafhopper. The glass tube was left standing in a constant temperature cabinet at 25° C. Seven days after the treatment, dead-and-survivalwas inspected to calculate the mortality (3-replication test).
As a reminder, the mortality is the percentage killed. Turning to `CCC(C)N1C(=O)N(c2ccc(F)cc2)CSC1=NC(C)(C)C` (centres unmarked) [Compound 284], the mortality at 400 ppm worked out at 100%.

For `CCCCCCN1C(=O)N(c2ccccc2)CSC1=NC(C)C` [Compound 153], the mortality at 400 ppm is 100%.

`CC(C)N1C(=O)N(c2ccccc2Cl)CSC1=NC(C)(C)C` [Compound 245, 2-t-butylimino-3-isopropyl-5-(o-chlorophenyl)-tetrahydro-1,3,5-thiadiazin-4-one]: the mortality at 400 ppm was found to be 100%.

As to `CCC(C)N1C(=O)N(c2ccc(Cl)cc2)CSC1=NC(C)(C)C` (centres unmarked) [Compound 198], the mortality at 400 ppm stood at 100%.

Take `CCC(C)N1C(=O)N(c2cccc(C)c2)CSC1=NC(C)(C)C` (centres unmarked) [Compound 328]: the mortality at 400 ppm is 100%.

The test system of another data set is two-spotted spider mite (Tetranychus urticae Koch). Briefly: Test Example 3: activity to two-spotted spider mite. It counts as in vivo. Particulars: 120 h, 1,000 ppm, 5 days after treatment. From the text: Activity to two-spotted spider mite (Tetranychus urticae Koch).
Testing method: Two-spotted spider mites were set free on the pot-planted soybean in a greenhouse. On the next day, a test composition of 1,000 ppm concentration was sprayed over the soybean by means of a spray gun. Two days or five days after the treatment, dead-and-survival was inspected to calculate the mortality.
With `CCOc1ccc(N2CSC(=NC(C)(C)C)N(C(C)CC)C2=O)cc1` (centres unmarked) [Compound 368, 2-t-Butylimino-3-s-butyl-5-(4-ethoxyphenyl)tetrahydro-1,3,5-thiadiazin-4-one], the mortality at 1000 ppm amounted to 100%.

In turn, `CCC(C)N1C(=O)N(c2ccc(F)cc2)CSC1=NC(C)(C)C` (centres unmarked) [Compound 284] had a mortality at 1000 ppm of 100%.

As to `CC(C)N1C(=O)N(c2ccccc2Cl)CSC1=NC(C)(C)C` [Compound 245, 2-t-butylimino-3-isopropyl-5-(o-chlorophenyl)-tetrahydro-1,3,5-thiadiazin-4-one], the mortality at 1000 ppm was 100%.

The compound `CCC(C)N1C(=O)N(c2ccc(Cl)cc2)CSC1=NC(C)(C)C` (centres unmarked) [Compound 198] showed a mortality at 1000 ppm of 100%.

`CCC(C)N1C(=O)N(c2cccc(C)c2)CSC1=NC(C)(C)C` (centres unmarked) [Compound 328]: the mortality at 1000 ppm is 100%.

The test system of a further data set is larvae of 28-spotted lady beetle (Epilachna vigintioctopunctana Fabricius). Briefly: Test Example 8: insecticidal activity against larvae of 28-spotted lady beetle. It counts as in vivo. To be noted: 120 h. How it is done:
Insecticidal activity against larvae of 28-spotted lady beetle (Epilachna vigintioctopunctana Fabricius).
Testing method: Leaflets of tomato grown in a greenhouse were dipped in a test composition of 100 ppm concentration for 30 seconds and after that the leaflets were dried by air. In a Petri dish covered on the bottom with a piece of filter paper, were introduced 1 ml of water and three treated tomato leaflets. After having been infested with seven second-instar larvae of 28-spotted lady beetle, the Petri dish was left standing in a constant temperature cabinet at 25° C. Five days after the treatment, the dead-and-survival was inspected to calculate the mortality (2-replication test).
On to `CCC(C)N1C(=O)N(c2ccc(F)cc2)CSC1=NC(C)(C)C` (centres unmarked) [Compound 284], for which the mortality at 100 ppm was 100%.

`CC(C)N1C(=O)N(c2ccccc2Cl)CSC1=NC(C)(C)C` [Compound 245, 2-t-butylimino-3-isopropyl-5-(o-chlorophenyl)-tetrahydro-1,3,5-thiadiazin-4-one] gave a mortality at 100 ppm of 90%.

In turn, `CCC(C)N1C(=O)N(c2ccc(Cl)cc2)CSC1=NC(C)(C)C` (centres unmarked) [Compound 198] yielded a mortality at 100 ppm of 100%.

`CCC(C)N1C(=O)N(c2cccc(C)c2)CSC1=NC(C)(C)C` (centres unmarked) [Compound 328] gave a mortality at 100 ppm of 100%.

In another data set the test system is larvae of house mosquito (Culex pipiens pallens Coquillett). Briefly: Test Example 6: insecticidal activity to larvae of house mosquito. It counts as in vivo. To be noted: 120 h. How it is done: Insecticidal activity to larvae of house mosquito (Culex pipiens pallens Coquillett).
Test method: In a 200-ml beaker, was placed together with a feed 100 ml of a test composition diluted with deionized water to 10 ppm concentration. The test composition was infested with 20 first-instar larvae of house mosquito and the beaker was covered with a sheet of Japanese paper. The beaker was kept in a constant temperature cabinet at 25° C. Five days after the treatment, the dead-and-survival was inspected to calculate the mortality.
On to `Cc1ccc(N2CSC(=NC(C)C)N(C)C2=O)cc1` [Compound 310], for which the mortality at 10 ppm amounted to 100%.

On to `CCC(C)N1C(=O)N(c2ccc(F)cc2)CSC1=NC(C)(C)C` (centres unmarked) [Compound 284], for which the mortality at 10 ppm amounted to 100%.

As to `CC(C)N1C(=O)N(c2ccccc2Cl)CSC1=NC(C)(C)C` [Compound 245, 2-t-butylimino-3-isopropyl-5-(o-chlorophenyl)-tetrahydro-1,3,5-thiadiazin-4-one], the mortality at 10 ppm came to 100%.

In turn, `CCC(C)N1C(=O)N(c2ccc(Cl)cc2)CSC1=NC(C)(C)C` (centres unmarked) [Compound 198] returned a mortality at 10 ppm of 100%.

`CCC(C)N1C(=O)N(c2cccc(C)c2)CSC1=NC(C)(C)C` (centres unmarked) [Compound 328] yielded a mortality at 10 ppm of 100%.

The next data set relates to cirrus red mite (Panonychus citri McGregor). The experiment in a line: Test Example 4: activity to citrus red mite (Rothamstead method). It counts as in vivo. On the set-up: concentration or dose not given beside the values. Particulars: two days after treatment, 25° C.; 2880 min. How it is done:
Activity to cirrus red mite (Panonychus citri McGregor).
Testing method: The test was performed by Rothamstead method. A test composition was sprayed by means of a spray gun over grapefruit leaves infested with citrus red mites. After air-drying the grapefruit was left standing in a constant temperature cabinet at 25° C. Two days after the treatment, the number of survived mites was counted to calculate the mortality.
In turn, `Cc1ccc(N2CSC(=NC(C)C)N(C)C2=O)cc1` [Compound 310] showed a Mortality of 100%.

Consider `CCOc1ccc(N2CSC(=NC(C)(C)C)N(C(C)CC)C2=O)cc1` (centres unmarked) [Compound 368, 2-t-Butylimino-3-s-butyl-5-(4-ethoxyphenyl)tetrahydro-1,3,5-thiadiazin-4-one], for which the Mortality was 100%.

Regarding `Cc1ccccc1N=C1SCN(c2ccccc2)C(=O)N1C` [Compound 124, 2-(2-Methyl)phenylimino-3-methyl-5-phenyltetrahydro-1,3,5-thiadiazin-4-one], the Mortality turned out to be 100%.

As for `CN=C1SCN(c2ccc(C)cc2)C(=O)N1C` [Compound 309], the Mortality was 100%.

The compound `CCCCCCN=C1SCN(c2ccc(F)cc2)C(=O)N1CCC` [Compound 281] had a Mortality of 100%.

Take `CN=C1SCN(c2ccccc2)C(=O)N1C` [Compound 115, 2-Methylimino-3-methyl-5-phenyl-tetrahydro-1,3,5-thiadiazin-4-one]: the Mortality amounted to 100%.

`CCCCCCCCN1C(=O)N(c2ccccc2)CSC1=NC(C)CC` (centres unmarked) [Compound 161] yielded a Mortality of 100%.

For `CCCCCCN1C(=O)N(c2ccccc2)CSC1=NC(C)C` [Compound 153], the Mortality was found to be 100%.

Regarding `CN1C(=N)SCN(c2ccccc2)C1=O` [Compound 123], the Mortality is reported as 100%.

In the next data set the test system is larvae of white-backed planthopper (Sogatella furcifera Horvath). Briefly: Test Example 2: insecticidal activity against larvae of white-backed planthopper. To be noted: 168 h, 400 ppm, first-instar larvae, 25° C., seven days after treatment, read-out: Mortality. It counts as in vivo. How it is done:
Insecticidal activity against larvae of white-backed planthopper (Sogatella furcifera Horvath).
Testing method: Five rice seedlings of the 1.5 leaf age were dipped in a test composition of 400 ppm concentration for 30 seconds. After air-drying, the seedlings were placed in a glass tube containing 1 ml of water and infested with five first-instar larvae of white-backed planthopper. The glass tube was left standing in a constant temperature cabinet at 25° C. and seven days after the treatment, dead-and-survival was observed. Mortality was calculated from the results of 3-replication test.
On to `CCC(C)N1C(=O)N(c2ccc(F)cc2)CSC1=NC(C)(C)C` (centres unmarked) [Compound 284], for which the mortality at 400 ppm was 100%.

Take `CC(C)N1C(=O)N(c2ccccc2Cl)CSC1=NC(C)(C)C` [Compound 245, 2-t-butylimino-3-isopropyl-5-(o-chlorophenyl)-tetrahydro-1,3,5-thiadiazin-4-one]: the mortality at 400 ppm was 100%.

In the case of `CCC(C)N1C(=O)N(c2ccc(Cl)cc2)CSC1=NC(C)(C)C` (centres unmarked) [Compound 198], the mortality at 400 ppm worked out at 100%.

For `CCC(C)N1C(=O)N(c2cccc(C)c2)CSC1=NC(C)(C)C` (centres unmarked) [Compound 328], the mortality at 400 ppm stood at 100%.

The test system of another data set is larvae of brown planthopper (Nilaparvata lugens Stahl). Briefly: Test Example 1: insecticidal activity against larvae of brown planthopper. It counts as in vivo. To be noted: 120 h, third-instar larvae, 25° C., 5 days after treatment. The method in brief:
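Rice seedlings at 1.5-leaf stage were dipped for 30 s in a 400 ppm test composition, air-dried, and infested with third-instar N. lugens larvae. After holding at 25 °C, mortality was scored 5 or 7 days post-treatment from three replicates.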
As to `CCOc1ccc(N2CSC(=NC(C)(C)C)N(C(C)CC)C2=O)cc1` (centres unmarked) [Compound 368, 2-t-Butylimino-3-s-butyl-5-(4-ethoxyphenyl)tetrahydro-1,3,5-thiadiazin-4-one], the mortality at 400 ppm came to 80%.

Turning to `CCC(C)N1C(=O)N(c2ccc(F)cc2)CSC1=NC(C)(C)C` (centres unmarked) [Compound 284], the mortality at 400 ppm turned out to be 100%.

With `CC(C)N1C(=O)N(c2ccccc2Cl)CSC1=NC(C)(C)C` [Compound 245, 2-t-butylimino-3-isopropyl-5-(o-chlorophenyl)-tetrahydro-1,3,5-thiadiazin-4-one], the mortality at 400 ppm came out at 100%.

`CCC(C)N1C(=O)N(c2ccc(Cl)cc2)CSC1=NC(C)(C)C` (centres unmarked) [Compound 198] displayed a mortality at 400 ppm of 100%.

For the compound `CCC(C)N1C(=O)N(c2cccc(C)c2)CSC1=NC(C)(C)C` (centres unmarked) [Compound 328], the mortality at 400 ppm was found to be 90%.

The data set is the same for the next values; noted with them: third-instar larvae, 25° C., 5 or 7 days after treatment (No. 123 not covered by footnote).
The compound `CN1C(=N)SCN(c2ccccc2)C1=O` [Compound 123] came in with a mortality at 400 ppm of 100%.
